The values that follow come from patent US20090298708A1, “2'-DEOXY-2'-FLUORO-BETA-D-ARABINONUCLEOSIDE 5'-TRIPHOSPHATES AND THEIR USE IN ENZYMATIC NUCLEIC ACID SYNTHESIS” (priority 2006, published 2009).

One data set concerns the target T1, MMLV-RT (Moloney murine leukemia virus, UniProt P03355).
T1 construct: Reverse transcriptases (RT): • MMLV-RT (MMLV or MM; source: Fermentas); purchased Fermentas
The experiment in a line: Primer extension assay with MMLV-RT. It counts as biochemical. Particulars: MMLV-RT; 37° C.; DNA template PF22 (T/U triphosphates) or PF24 (C triphosphates); three contiguous units. The source says: (§1) Primer extension assays were used to assess the incorporation of 2′F-araNTP on the various DNA templates (Table 1). The DNA primer (PF20) was first radioactively labeled at the 5′-hydroxyl terminus with a radioactive phosphorus probe and the enzyme T4 polynucleotide kinase (T4 PNK) (see Example 1 for General Methods). To assess the incorporation of 2′F-araNTPs, the primer and template were annealed, and the nucleoside 5′-triphosphates added in the presence of enzyme under the conditions specified in Table 2. Time points were obtained by analyzing small aliquots from the reaction mixture through polyacryamide gel electrophoresis (PAGE) and autoradiography.
(§2) Primer extension assays were used to assess the incorporation efficiency of contiguous 2′F-ara(T/C)TPs compared to 2′F-r(U/C)TP on a DNA template (e.g. PF22 or PF24). To this end, a DNA template (e.g. PF22: FIGS. 15, 16, 17A, 18, 21A; PF24: FIGS. 17B, 19, 20, 21B), primer and the appropriate NTPs (e.g. combination of dATP/dCTP/dGTP/ and NTP, where N=dT, 2′F-araT, 2′F-rU, or rU (FIGS. 15, 16, 17A, 18, 21A); or combination of dATP/dGTP/dTTP/ and NTP, where N=dC, 2′F-araC, 2′F-rC, or rC (FIGS. 17B, 19, 20, 21B)), were incubated in the presence one of MMLV-RT, 9N, HIV or DV polymerase. The protocols and conditions are described in Example 2 and Table 2.
(§3) Unless otherwise noticed in the Examples described below, the conditions used in the primer extension assays, such as dNTP concentration, reaction temperatures, concentration of Mg^2+, and reaction buffers (provided by the manufacturers, except for the HIV buffer which was prepared in-house) are shown in Table 2.
(§4) Primer extension assays were used to assess the incorporation of 2′F-araTTP on the DNA template (PF22). The DNA primer (PF20) was first radioactively labeled at the 5′-hydroxyl terminus with a radioactive phosphorus probe and the enzyme T4 polynucleotide kinase (T4 PNK) according to the manufacturer's specifications (MBI Fermentas Life Sciences, Burlington, ON). Incorporation of the ^32P label was accomplished in reaction mixtures consisting of DNA substrate (200 pmol), 2 μl loxreaction buffer (Buffer A for forward reaction: 500 mM Tris-HCl, pH 7.6 at 25° C., 100 mM MgCl2, 50 mM DTT, 1 mM spermidine and 1 mM EDTA), 1 μl T4 PNK enzyme solution (10 U/1 μl in a solution of 20 mM Tris-HCl, pH 7.5, 25 mM KCl, 0.1 mM EDTA, 2 mM DTT and 50% glycerol), 6 μl [γ-^32P]-ATP solution (6000 Ci/mmol, 10 mCi/ml; Amersham Biosciences, Inc.) and autoclaved sterile water to a final volume of 20 μl. The reaction mixture was incubated for about 45-60 min at 37° C., followed by a second incubation for 10 min at 95° C. to heat denature and deactivate the kinase enzyme. The solution was purified according to a standard protocol and the isolated yield of 5′-^32P-DNA following gel extraction averages 50%. The pure labeled samples were kept at −20° C. for future use.
(§5) Usually 2 or 3 folds of cold (unlabeled) DNA primer were combined with the radioactive primer. Then primer to template was mixed together with the final concentration at 85 nM for the primer and 255 nM for the template (i.e. the primer:template=1:3 molar ratio). The primer and template were heated at 95° C. for 5 min and annealed at 4° C. for at least two hours before use. In an Eppendorf tube, the following reagents, 5× or 10× buffer, nucleoside 5′-triphosphates (DATP, dGTP, dCTP, 2′F-araTTP at the same concentrations; see legend of FIG. 2), water, the primer and template mixture, were added together according to pre-calculated reaction volume (20 μL) and concentrations (see reaction conditions in Table 2). Mineral oil (20 μL) was usually used to prevent evaporation. The reaction mixture was incubated at either 37° C. or 55° C. and one of the various enzymes tested was added to initiate the primer extension reactions. […]

The next data set deals with T2, HIV-1 RT (recombinant) (Human immunodeficiency virus type 1 group M subtype B, UniProt P04585).
T2 construct: Reverse transcriptases (RT): • MMLV-RT (MMLV or MM; source: Fermentas); • HIV-1 RT (recombinant); purchased Worthington Biochemical Corp
Kind of data set: Primer extension assay with HIV-1 RT. It counts as biochemical. Particulars: 37° C., DNA template PF22 (T/U triphosphates) or PF24 (C triphosphates), three contiguous units.
From the text: as §1, §2, §3, §4, §5

The test system of a further data set is DNA polymerases. Kind of data set: Primer extension assays, statement for all enzymes studied. The format is biochemical. As to conditions: DNA template PF24; 9N, HIV, MMLV, DV.
Data set [1] concerns the target Phusion High-Fidelity DNA polymerase (Ph) (UniProt P61875). Particulars: apparent fidelity, all 2'F-araNTP and dNTP dropouts; 55 C.
Data set [2] deals with Phusion DNA polymerase (Ph). Kind of data set: Dropout assay, fidelity of incorporation by Ph. It counts as biochemical. As to conditions: 30 min reaction time, 55° C., templates PF21, PF41. An excerpt: FIG. 13 illustrates the fidelity of 2′F-araNTP incorporation on pyrimidine rich DNA template PF21 by Ph DNA polymerase. […] Template PF41 and primer PF20 are shown; PF39 is a 27-nt DNA control.
FIG. 14 illustrates the fidelity of 2′F-araNTP incorporation on purine rich DNA template PF41 by Ph DNA polymerase. The base sequence of the primer, DNA template and resulting terminated products in different dropout conditions (condition 1-5) is shown. […] Lane 1: dNTPs; 2: drop out dCTP (i.e. dATP, dGTP and dTTP, shorten as AGT, same coding for lanes 3-5), lane 6: 2′F-araNTPs; 7: drop out 2′F-araCTP (i.e. 2′F-araATP, 2′F-araGTP, 2′F-araTTP, shorten as AGT; same coding for lanes 8-10). The template PF41 and the primer PF20 are shown; PF39 is a 27mer DNA control.
For example, the 2′F-araNTP of interest is removed from the pool, and the ensuing synthesis on DNA template (e.g. PF21, PF23, PF41, PF43) assessed in comparison with a control reaction containing all four 2′F-araNTPs. For comparison, dropout experiments containing dNTPs are run in parallel. […] Apparent fidelity was calculated according to the equation:
(§6) 1−[(% full-length−2′F-araNTP)/(% full-length+2′F-araNTP)]
In one of these assays, 2′F-araATP was removed from the pool, and the ensuing synthesis assessed in comparison with a control reaction containing all four 2′F-araNTPs. For comparison, dropout experiments containing dNTPs were run in parallel (FIGS. 11-14).
Phusion DNA polymerase (Ph) was evaluated for fidelity of 2′F-araNTP incorporation using the same dropout assay. All four dropout experiments were conducted with the same DNA template PF21 (FIG. 13), or PF41 (FIG. 14).

The target in the next data set is T3, DV DNA polymerase (Pyrococcus sp., UniProt Q51334, D141A/DEL493-1029/E143A).
T3 construct: purchased New England Biolabs; host or cells: E. coli
The experiment in a line: Dropout assay, fidelity of incorporation by DV. The format is biochemical, Pyrococcus species GB-D. As to conditions: 30 min reaction time, 25 μM triphosphates, 55° C., template A: PF41, G: PF43, T: PF21, C: PF23. Here is the method:
(§7) FIG. 11A illustrates the fidelity of 2′F-araATP incorporation on a DNA template PF41 by DV and 9N DNA polymerases. Reaction conditions: 0.8 unit DV and 9N, 25 μM triphosphates at 55° C. in 30 μL reaction volume; incubation time: 30 min. Group 1 & 5: dNTPs; 2 & 6: dropout of dATP; 3 & 7: 2′F-araNTPs, 4 & 8: dropout of 2′F-araATP; 27mer control DNA is PF39.
(§8) FIG. 11B illustrates the fidelity of 2′F-araGTP incorporation on DNA template PF43 by DV and 9N DNA polymerases. Reaction conditions: primer/template (1:1 molar ratio): 100 nM; 0.4 μL (0.8 unit) DV, 9N, 25 μM triphosphate concentration at 55° C. in 30 μL reaction volume. Reaction time for dNTPs (group 1, 5) was 30 min and others were shown above. Group 1 & 5: dNTPs; 2 & 6: drop out dGTP (i.e. dTTP, dCTP and dATP), 3 & 7: 2TF-araNTPs, 4 & 8: drop out 2′F-araGTP; lane P is the template PF41 as the full-length product control; PF39 is a 27-nt DNA control. All samples were analyzed by 12% denaturing PAGE.
(§9) FIG. 12A illustrates the fidelity of 2′F-araTTP incorporation by DV and 9N DNA polymerases on a DNA template PF21. Reaction conditions: 100 nM primer/template (1:1 molar ratio); 0.4 μL (0.8 unit) DV or 9N, 25 μM triphosphate concentration at 55° C. in 30 μL reaction volume. Reaction time for dNTPs (group 1, 5) was 30 min and others were shown above. Groups 1 & 5: dNTPs; 2 & 6: drop out dTTP; 3 & 7: 2′F-araNTPs; 4 & 8: drop out 2′F-araTTPs. in B: group 1 & 5: dNTPs; 2 & 6: drop out dCTP; 3 & 7: 2′F-araNTPs; 4 & 8: drop out 2′F-araCTPs; PF39 is a 27-nt DNA control. All samples were analyzed by 12% denaturing PAGE.
(§10) FIG. 12B illustrates the fidelity study of 2′F-araCTP incorporation by DV and 9N DNA polymerases on a DNA template PF23. Reaction conditions: 100 nM primer/template (1:1 molar ratio); 0.4 μL (0.8 unit) DV or 9N, 25 μM triphosphate concentration at 55° C. in 30 μL reaction volume. Reaction time for dNTPs (groups 1, 5) was 30 min and others were shown above. Groups 1 & 5: dNTPs; 2 & 6: drop out dCTP; 3 & 7: 2′F-araNTPs; 4 & 8: drop out 2′F-araCTPs; PF39 is a 27-nt DNA control. All samples were analyzed by 12% denaturing PAGE.
(§11) “Dropout assays” (Ichida et al. (2005) J. Am. Chem. Soc. 127:2802-2803) were conducted to assess the fidelity of 2′F-araNTP incorporation (each of 2′F-araATP, 2′F-araCTP, 2′F-araGTP and 2′F-araTTP) by various DNA polymerases (FIGS. 11-14). For example, the 2′F-araNTP of interest is removed from the pool, and the ensuing synthesis on DNA template (e.g. PF21, PF23, PF41, PF43) assessed in comparison with a control reaction containing all four 2′F-araNTPs. For comparison, dropout experiments containing dNTPs are run in parallel. Full-length DNA and FANA products are obtained when all four dNTPs (group 1 and 5) and 2′F-araNTPs (groups 3 and 7) were available, however, some pausing may occur during synthesis of the arabinose modified oligomers. Apparent fidelity was calculated according to the equation:
as §6
(§12) at 30 min reaction time (sample equation for dNTP values). >99% means that the full-length product was not detectable in our dropout assays.
(§13) “Dropout assays” (Ichida et al. (2005) J. Am. Chem. Soc. 127:2802-2803) were conducted to assess apparent fidelity of 2′F-araNTP incorporation by DV and 9N. In one of these assays, 2′F-araATP was removed from the pool, and the ensuing synthesis assessed in comparison with a control reaction containing all four 2′F-araNTPs. For comparison, dropout experiments containing dNTPs were run in parallel (FIGS. 11-14). Full-length DNA and FANA products were obtained when all four dNTPs (group 1 and 5) and 2′F-araNTPs (groups 3 and 7) were available, although some pausing was evident during synthesis of the arabinose modified oligomers.

The target in a further data set is T4, 9N DNA polymerase (Thermococcus sp., UniProt Q56366, E143D).
T4 construct: purchased New England Biolabs; host or cells: E. coli
Kind of data set: Dropout assay, fidelity of incorporation by 9N. The format is biochemical, Thermococcus species (strain 9° N-7). Particulars: 30 min reaction time, 25 μM triphosphates, 55° C., template A: PF41, G: PF43, T: PF21, C: PF23. Here is the method: as §7, §8, §9, §10, §11, §6, §12, §13

Take `Nc1ccn([C@@H]2O[C@H](COP(=O)(O)OP(=O)(O)OP(=O)(O)O)[C@@H](O)[C@H]2O)c(=O)n1` [rCTP, reference compound]: the “Order of efficiency of incorporation” value at MMLV-RT and at HIV-1 RT (recombinant) was “dCTP~2′F-rCTP ≧ 2′F-araCTP > CTP” in each case. For the same compound, in the data set with DNA polymerases, the “order of incorporation efficiency” value is “dCTP=2′F-rCTP>2′F-araCTP >>rCTP”.
Consider “TAATACGACTCACTATA / TTTGCCACTCTTCTCCCTATAGTGAGTCGTATTA [PF20/PF21 primer-template]”, for which the activity in data set [1] was greater than 99%.
In the case of “TAATACGACTCACTATA / AGAGCCTGAGAAGAGAGTATAGTGAGTCGTATTA [PF20/PF41 primer-template]”, in data set [1], the activity is greater than 99%.
As to `Nc1nc2c(ncn2[C@H]2C[C@H](O)[C@@H](COP(=O)(O)OP(=O)(O)OP(=O)(O)O)O2)c(=O)[nH]1` [dGTP], the “% Apparent Fidelity, dNTP” value in data set [2] is recorded as greater than 99%; on DV DNA polymerase, 62%; on 9N DNA polymerase it was 84%.
With `O=c1ccn([C@@H]2O[C@H](COP(=O)(O)OP(=O)(O)OP(=O)(O)O)[C@@H](O)[C@H]2O)c(=O)[nH]1` [rUTP, reference compound], the “Order of efficiency of incorporation” value on MMLV-RT and on HIV-1 RT (recombinant) was “dTTP > 2′F-araTTP > 2′F-rUTP > UTP” in each case.
With `Nc1ncnc2c1ncn2[C@H]1C[C@H](O)[C@@H](COP(=O)(O)OP(=O)(O)OP(=O)(O)O)O1` [dATP], the “% Apparent Fidelity, dNTP” value in data set [2] is greater than 99%; at DV DNA polymerase, 1%; on 9N DNA polymerase, 80%.
